Where two headings read alike, the source gives them in different places.
Legend:
[1] = Cytotoxicity, alamar blue; format: cell-based, BALB/c mice; conditions: BALB/c, read-out: Cytotoxicity (CC50 ± SD)
Procedure: The cytotoxicity of the test compounds was assessed in primary cultures of mouse peritoneal macrophages as reported elsewhere, with minor modifications. Briefly, BALB/c mice were sacrificed by CO2 inhalation, and their peritoneal macrophages were collected by washing the abdominal cavity with cold RPMI 1640 (Gibco, Paisley, Scotland, United Kingdom) culture medium supplemented with antibiotics (sodium penicillin 200 IU and streptomycin 200 μg/mL) and 10% fetal bovine serum. The macrophages were distributed in 96-well culture plates at 10^5 cells/well. After 4 h incubation at 37°C and 5% CO2, the culture medium was replaced by fresh medium containing the test compounds, and the plates were incubated for another 48 h. Afterwards, 20 μL alamar blue (Thermo Fisher Scientific, Oregon, United States) was added per well. Incubation was continued for another 6–8 h at 37°C and 5% CO2 to measure the fluorescence of the reduced dye in a plate reader (excitation: 485 nm, emission: 590, scaling factor: 10/10, Fluoroskan Ascent FL 2.5 plate reader—Thermo Labsystems, Waltham, MA, United States). Fifty percent cytotoxic concentrations (CC50) were estimated by nonlinear fitting to the Emax sigmoid model. Each concentration was tested in triplicate, and each compound was tested in three independent studies.

[2] = tested on: L. amazonensis promastigotes; assay: Growth inhibition assay of promastigotes (pNPP); format: cell-based, Leishmania (Leishmania) amazonensis MHOM/BR/77/LTB0016; conditions: Leishmania amazonensis, read-out: Promastigotes (IC50 ± SD) L. amazonensis
Excerpt: (§1) Leishmania (Leishmania) amazonensis MHOM/BR/77/LTB0016 reference strain was kindly donated by the Department of Immunology of Fundação Oswaldo Cruz (Fiocruz), Brazil. Leishmania (Leishmania) mexicana MNYC/BZ/62/M379 and L. major MHOM/IL/81/Friedlin reference strains were kindly donated by Paul A. Bates, Division of Biomedical and Life Sciences, Faculty of Health and Medicine, Lancaster University, United Kingdom. Leishmania (Leishmania) infantum MHOM/FR/78/LEM75 was kindly donated by the Department of Parasitology, Faculty of Pharmacy, Universidad Complutense de Madrid, Spain. The promastigotes were cultivated at 26°C in Medium 199 (Gibco, Grand Island, NY, United States) supplemented with 10% heat-inactivated (56°C, 30 min) fetal bovine serum (Gibco, Grand Island, NY, United States) and antibiotics (200 IU penicillin and 200 μg/mL streptomycin). Exponential multiplication of the promastigotes of the four species was attained by passages every 3–4 days. L. mexicana axenic amastigotes were cultured in Schneider's Insect Medium (Sigma-Aldrich, St. Louis, MO, United States) at pH 5.4, supplemented with 20% heat-inactivated fetal bovine serum and antibiotics (as above).
(§2) The growth inhibition assay of promastigotes was conducted according to Bodley et al.'s procedure, with minor modifications. Briefly, 96-well culture plates were seeded with 100 μL culture medium 199 containing 5 × 10^5 log-phase promastigotes and 100 μL of twofold serial dilutions of the test compounds in culture medium. The plates were sealed with parafilm and incubated for 48 h at 26°C. Negative control wells contained promastigotes and DMSO at 0.5%, and positive wells contained promastigotes and 2.7 μM amphotericin B deoxycholate (Gibco, Grand Island, NY, United States). A series of amphotericin B concentrations was also tested in parallel to estimate its IC50 against promastigotes of the three Leishmania strains. After the incubation period, 30 μL of 3 mg/mL p-nitro-phenyl-phosphate (pNPP) (Sigma-Aldrich) in sodium acetate (pH 5.5, Sigma-Aldrich) and 1% Triton X-100 (Sigma-Aldrich) were added to each well. Plates were incubated for other 3 h at 37°C, and 50 μL 0.25 M NaOH (Sigma-Aldrich) was added to change all the produced p-nitro-phenol to its yellow-colored form. Absorbance was then read in a Biotek Epoch microplate reader (Agilent, Santa Clara, CA, United States) at 405 nm. Half-maximal inhibitory concentrations (IC50) were estimated by nonlinear fitting of absorbance versus compound concentration to the sigmoid Emax equation [18]. Each drug concentration was tested in quadruplicate, and the assay was repeated three times.

[3] = tested on: L. major promastigotes; assay: Growth inhibition assay of promastigotes (pNPP); format: cell-based, L. major MHOM/IL/81/Friedlin; conditions: Leishmania major, read-out: Promastigotes (IC50 ± SD) L. major
Excerpt: as §1, §2

[4] = tested on: L. mexicana intracellular amastigotes; assay: Intracellular amastigote transformation and proliferation assay; format: cell-based, Leishmania (Leishmania) mexicana; conditions: for IC50: Leishmania mexicana, Peritoneal macrophage, read-out: L. mexicana amastigotes (IC50 ± SD)
Excerpt: as §1
The activity of the test compounds against L. mexicana intracellular amastigotes was carried out by the transformation and proliferation assay as reported elsewhere. Briefly, mouse peritoneal macrophages were obtained by peritoneal lavage of BALB/c mice and cultivated in RPMI 1640 medium supplemented with fetal bovine serum and antibiotics as described above. The cells were seeded in 96-well culture plates at 10^5 cells/well (100 μL) and incubated at 37°C and 5% CO2 for 2 h. Then, macrophages were infected with L. mexicana axenic amastigotes at a rate of three parasites per host cell. After overnight incubation at 37°C and 5% CO2, noninternalized amastigotes and nonadhered macrophages were removed by the elimination of the culture medium and washing with phosphate buffer solution (PBS). Fresh RPMI 1640 medium containing serial dilutions of the test compounds was then added. Amphotericin B was tested in parallel at concentrations from 1.35 to 0.021 μM. Four replicates of each drug concentration were tested in every assay. Plates were incubated for 48 h at 37°C and 5% CO2.

[5] = tested on: L. infantum promastigotes; assay: Growth inhibition assay of promastigotes (pNPP); format: cell-based, Leishmania (Leishmania) infantum MHOM/FR/78/LEM75; conditions: Leishmania infantum, read-out: Promastigotes (IC50 ± SD) L. infantum
Excerpt: as §1, §2

[6] = tested on: L. mexicana promastigotes; assay: Growth inhibition assay of promastigotes (pNPP); format: cell-based, Leishmania (Leishmania) mexicana MNYC/BZ/62/M379; conditions: Leishmania mexicana, read-out: Promastigotes (IC50 ± SD) L. mexicana
Excerpt: as §1, §2

[7] = tested on: L. mexicana; assay: Mouse model of cutaneous leishmaniasis, intralesional treatment; format: in vivo, BALB/c mice; conditions: for lesion size versus amphotericin B–treated mice: at 21 days
Procedure: Female, 18–20 g, 8–10 weeks old BALB/c mice were supplied by the laboratory animal breeding facility of the Faculty of Medicine, National Autonomous University of México. They were maintained under controlled environmental conditions (room temperature 22°C–25°C, relative humidity 60%–65%, light cycle 12 h light–12 h dark) and were handled by qualified personnel. At the end of studies, mice were sacrificed by CO2 inhalation. The experimental protocol was approved by the Ethics in Research Committee and the Internal Committee on the Care and Use of Lab Animals (Code CICUAL 004-CIC-2019). All the experiments were conducted in accordance with the Mexican Regulation and the Institute of Laboratory Animal Research Guide for the care and use of laboratory animals.
Mice were infected by intradermal injection in the footpads with 10^7 stationary-phase L. mexicana promastigotes. Two weeks later, mice were randomly allocated in seven groups of 6–7 mice each. Four groups were treated intralesionally every 3 days (five doses) with 20 μL of any of the test compounds at 10 mg/mL in DMSO. […] The dorso-plantar thickness of the rear limbs was weekly measured from the beginning of treatment (14 days postinfection) to 2 weeks after the end of treatment. Feet were measured with a Vernier caliper, and lesion sizes were calculated by subtracting the value of the noninfected limb (left) to that of the infected one (right).
Two weeks after the end of treatment, mice were weighed, sacrificed by CO2 inhalation, and necropsied. The weights of the heart, liver, spleen, and left and right kidneys were determined. Both rear limbs were excised at the level of the tibiotarsal joint and weighed to calculate, by difference, the weight of the lesions. The number of parasites in the lesions was estimated by using the limiting dilution assay technique.

[8] = parameters: method as in PMID 6576723; conditions: subcutaneous route; cited from earlier work
[9] = tested on: L. donovani axenic amastigotes; parameters: method as in PMID 27501246; conditions: cited from earlier work
[10] = tested on: Trypanosoma cruzi; parameters: method as in PMID 27501246; conditions: in vitro and in vivo; cited from earlier work
[11] = tested on: Trypanosoma brucei; parameters: method as in PMID 27501246; conditions: in vitro and in vivo; cited from earlier work
[12] = tested on: Leishmania; conditions: cited from earlier work
[13] = primary mouse peritoneal macrophages
[14] = intracellular amastigotes in mouse peritoneal macrophages, 48 h, then 72 h transformation at 26°C
[15] = second mention, p = 0.0057 (Compound 5), p = 0.0030 (Compound 6)

Structure (SMILES) | CC50 at 48 h [1, 13] [µM] | IC50 ([2]; 48 h at 26°C, pNPP readout) [µM] | IC50 ([3]; 48 h at 26°C, pNPP readout) [µM] | IC50 [4, 14] [µM] | IC50 ([5]; 48 h at 26°C, pNPP readout) [µM] | IC50 ([6]; 48 h at 26°C, pNPP readout) [µM] | other results
C[C@@H]1[C@H](O)[C@@H](C)/C=C/C=C/C=C/C=C/C=C/C=C/C=C/[C@H](O[C@@H]2O[C@H](C)[C@@H](O)[C@H](N)[C@@H]2O)C[C@@H]2O[C@](O)(C[C@@H](O)C[C@@H](O)[C@H](O)CC[C@@H](O)C[C@@H](O)CC(=O)O[C@H]1C)C[C@H](O)[C@H]2C(=O)O [AmB, amphotericin B deoxycholate, reference compound] | 21 ± 2.1 | 0.031 ± 0.007 | 0.031 ± 0.008 | 0.48 ± 0.02 | 0.031 ± 0.002 | 0.042 ± 0.019 | Selectivity index [4]: 44
OC(COc1cccc2ccccc12)CN1CCCC1 (centres unmarked) [Compound 1] | 125 ± 11 | > 50 | 42.5 ± 7.2 | 26.3 ± 8.2 | 23.4 ± 9.2 | > 50 | Selectivity index ([4]; CC50/IC50 (in amastigotes)): 5
CCN1CCN(C(=S)c2ccc(OC)cc2)CC1 [Compound 2] | 127 ± 2.1 | > 50 | > 50 | > 50 | > 50 | > 50 | 
COc1ccc2c(c1)sc(=N)n2C [Compound 3] | > 257 | 30.6 ± 11 | > 50 | > 50 | > 50 | > 50 | 
Nc1cnn(Cc2ccccc2F)c1 [Compound 4] | 172 ± 6.9 | 23.7 ± 9.9 | 11.3 ± 2.2 | 8.9 ± 1.5 | 23.1 ± 7.6 | 11.1 ± 8.2 | number of parasites in lesions versus controls, distribution-free multiple comparison test ([7]; limiting dilution, 2 weeks after the end of treatment, p = 0.0170): statistically significant differences; Selectivity index ([4]; CC50/IC50 (in amastigotes)): 19
CC(C)OCCCn1c(=N)c(C(N)=S)cc2c(=O)n3ccccc3nc21 [Compound 5] | 172 ± 7.9 | 28.6 ± 14.3 | 9.9 ± 1.9 | 1.1 ± 0.3 | 13.8 ± 4.1 | 27.2 ± 6.2 | average lesion weight versus amphotericin B treated mice ([7]; 2 weeks after the end of treatment, p = 0.023): statistically lower; lesion size versus amphotericin B–treated mice ([7]; first mention, p = 0.0491): statistically smaller; lesion size versus amphotericin B–treated mice [7, 15]: statistically smaller
CN1CCN(Cc2ccccc2Sc2ccccc2)CC1 [Compound 6] |  | 3 ± 0.42 | 4.6 ± 2.3 | 5.9 ± 2.8 | 2.7 ± 1 | 2.3 ± 0.54 | lesion size versus amphotericin B–treated mice [7, 15]: statistically smaller; CC50 ([1]; mouse peritoneal macrophages, 48 h): 60.9 ± 10.7 µM; Selectivity index ([4]; CC50/IC50 (in amastigotes)): 10
O=C(Cn1cc([N+](=O)[O-])nc1[N+](=O)[O-])N1CCN(c2ccccc2)CC1 [Compound 7] |  |  |  |  |  |  | CC50 at 48 h ([1]; mouse peritoneal macrophages): 25.2 ± 1.9 µM; IC50 ([2]; 48 h): 1.2 ± 0.44 µM; IC50 ([3]; 48 h): 2.9 ± 0.56 µM; IC50 ([4]; in Mus musculus): 0.23 ± 0.04 µM; IC50 ([5]; 48 h): 5.9 ± 1 µM; IC50 ([6]; 48 h): 0.76 ± 0.16 µM
C[S+](C)[O-] [DMSO, dimethyl sulfoxide] |  |  |  |  |  |  | 50% lethal single dose toxicity [8]: 13900 to 20500 mg/kg
Cc1nc(C)c(C(=O)Nc2ccc(F)c(-c3nc4ncc(-c5ccccn5)cn4n3)c2)o1 [GNF 6702] |  |  |  |  |  |  | increase in potency on optimization of hit GNF5343 [9]: 400 fold; activity against Trypanosoma cruzi [10]: active; activity against Trypanosoma brucei [11]: active
CCN(CC)C(=S)SSC(=S)N(CC)CC [disulfiram] |  |  |  |  |  |  | in vivo activity in an experimental model of cutaneous leishmaniasis [12]: in vivo activity

Reference: publication PMC12227259, “PubChem BioAssays 1063: A Poorly Exploited Source of New Antileishmanial Compounds” (Journal of Parasitology Research, 2025)
